Earlier results on nine compounds are cited in patent US20190000795A1, “Methods of using cannabinoids and/or molecular similars for modulating, waking-up and/or disabling cellular functions involved in causing disease -- reinvigorating metabolism with anandamide, 2-arachidonoylglycerol and similarly acting compounds” (priority 2017, published 2019).

One series deals with GPR55 (Homo sapiens, UniProt Q9Y2T6).
The subject of series [1] is mitochondrion.
In a further series the test system is Complex 1. To be noted: for Complex 1 activity, rapid and transient increase: below threshold around 10 μM.
For series [2], the system named is mitochondrion. This is another data set of the same source.

Like-named read-outs stand apart in the source and are kept apart here.

GPR55, sequence (Q9Y2T6 whole entry, species assumed): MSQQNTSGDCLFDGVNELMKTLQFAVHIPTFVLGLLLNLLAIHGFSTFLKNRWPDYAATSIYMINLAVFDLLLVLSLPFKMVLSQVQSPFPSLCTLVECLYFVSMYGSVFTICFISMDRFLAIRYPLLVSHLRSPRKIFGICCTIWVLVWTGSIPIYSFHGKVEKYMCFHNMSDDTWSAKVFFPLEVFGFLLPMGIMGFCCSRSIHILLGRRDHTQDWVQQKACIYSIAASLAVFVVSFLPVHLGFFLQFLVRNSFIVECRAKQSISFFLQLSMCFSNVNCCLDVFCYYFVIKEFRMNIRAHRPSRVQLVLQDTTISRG

For the compound `CCCCC/C=C\C/C=C\C/C=C\C/C=C\CCCC(=O)OC(CO)CO` [2AG, 2-arachidonoylglycerol], the “GPR55 Ca2+ flux activation” value on GPR55 is on record as “not”.
`CCCCC/C=C\C/C=C\C/C=C\C/C=C\CCCC(=O)NCCO` [AEA, N-arachidonoylethanolamine]: in the series on mitochondrion [1], the “effect on H2O2 production” value is reported as “no effect”. Besides, the “concentration range of steady logarithmic decline of Complex 1 activity” value with Complex 1 is on record as 5-200 μM. In addition, in the series on mitochondrion [2], the “O2 consumption at the mitochondrion” value is on record as “decrease”. The “GPR55 Ca2+ flux activation” value on GPR55 was “Ca^2+ flux activation”.
With `CCCCCCC(C)(C)c1ccc([C@@H]2C[C@H](O)CC[C@H]2CCCO)c(O)c1` [CP 55 940], the “GPR55 Ca2+ flux activation” value on GPR55 is recorded as “not”.
In the case of `CCCCCCC(C)(C)c1cc(O)c2c(c1)OC(C)(C)[C@@H]1CC=C(CO)C[C@@H]21` [HU210], the “effect on H2O2 production” value in the series on mitochondrion [1] (between 2 and 10 μM) is recorded as “increase”. Besides, in the series on Complex 1, the “threshold concentration of sudden decrease of Complex 1 activity” value was “around 10 μM”; the “Complex 1 activity, rapid and transient increase” value is 25%. Also, the “O2 consumption at the mitochondrion” value in the series on mitochondrion [2] is “decrease”.
For the compound `CCCn1c(C)c(C(=O)c2cccc3ccccc23)c2ccccc21` [JWH015], the “GPR55 Ca2+ flux activation” value on GPR55 was “Ca^2+ flux activation”.
Take `CCCCC/C=C\C/C=C\C/C=C\C/C=C\CCCC(=O)OCCN` [O-AEA, O-arachidonoyl ethanolamine]: the body temperature result with mice is recorded as “lowers body temperature”. Besides, the “GPR55 Ca2+ flux activation” value at GPR55 is “not”.
As to `CCCCCCCCCCCCCCCC(=O)NCCO` [PEA, palmitoylethanolamide], the “GPR55 Ca2+ flux activation” value on GPR55 is recorded as “not”.
As for `CCCCCc1cc(O)c2c(c1)OC(C)(C)[C@@H]1CCC(C)=C[C@@H]21` [THC, delta-9 tetrahydrocannabinol], in the series on mitochondrion [1] (between 2 and 10 μM), the “effect on H2O2 production” value was “increase”. Moreover, in the series on Complex 1, the “threshold concentration of sudden decrease of Complex 1 activity” value was “around 10 μM”; the “Complex 1 activity, rapid and transient increase” value is recorded as 50%. Further, the “Complex 2/3 inhibition, course of effect” value in the series with Complex 2/3 is “more steady logarithmic concentration dependent effect”. Further, the “O2 consumption at the mitochondrion” value in the series on mitochondrion [2] was “decrease”. At GPR55, the “GPR55 Ca2+ flux activation” value was “Ca^2+ flux activation”.
In the case of `CCCCC/C=C\C/C=C\C/C=C\C/C=C\CCCC(=O)N[C@H](C)CO` [methanandamide], at GPR55, the “GPR55 Ca2+ flux activation” value is “Ca^2+ flux activation”.
